According to publication PMC9481151, “Discovery of new symmetrical and asymmetrical nitrile-containing 1,4-dihydropyridine derivatives as dual kinases and P-glycoprotein inhibitors: synthesis, in vitro assays, and in silico studies” (Journal of Enzyme Inhibition and Medicinal Chemistry, 2022):
Values after ≈ are worked out from the molar mass of the structure shown. Like-named read-outs stand apart in the source and are kept apart here.

Legend:
[1] = tested on: OVCAR-8; experiment: NCI single dose (10 µM) SRB screen; assay type: cell-based, human; details: ovarian cancer, 48 h
[2] = tested on: NCI-H322M; experiment: NCI single dose (10 µM) SRB screen; assay type: cell-based; details: non-small cell lung cancer, 48 h
[3] = tested on: C. albicans; experiment: MIC, two-fold microbroth dilution method; details: Candida albicans
[4] = tested on: A498; experiment: NCI single dose (10 µM) SRB screen; assay type: cell-based, human; details: renal cancer, 48 h
[5] = tested on: UACC-257; experiment: NCI single dose (10 µM) SRB screen; assay type: cell-based, human; details: melanoma, 48 h
[6] = tested on: UACC-62; experiment: NCI single dose (10 µM) SRB screen; assay type: cell-based, human; details: melanoma, 48 h
[7] = tested on: Aspergillus flavus; experiment: Agar well diffusion method; details: for zone of inhibition at 1000 µg/mL: Aspergillus flavus, 24 h, read-out: Diameter of inhibition zone, A. flavus; for % activity index, A. flavus: relative to clotrimazole
[8] = tested on: A. flavus; experiment: MIC, two-fold microbroth dilution method; details: Aspergillus flavus, read-out: MIC (µg/mL) A. flavus
[9] = tested on: UO-31; experiment: NCI single dose (10 µM) SRB screen; assay type: cell-based, human; details: renal cancer, 48 h
[10] = tested on: ACHN; experiment: NCI single dose (10 µM) SRB screen; assay type: cell-based, human; details: renal cancer, 48 h
[11] = tested on: CAKI-1; experiment: NCI single dose (10 µM) SRB screen; assay type: cell-based, human; details: renal cancer, 48 h
[12] = tested on: MCF7; experiment: NCI single dose (10 µM) SRB screen; assay type: cell-based, human; details: breast cancer, 48 h
[13] = tested on: B. subtilis; experiment: MIC, two-fold microbroth dilution method; details: Bacillus subtilis
[14] = tested on: E. coli; experiment: MIC, two-fold microbroth dilution method; details: Escherichia coli, read-out: MIC (µg/mL) E. coli
[15] = tested on: P. aeruginosa; experiment: MIC, two-fold microbroth dilution method; details: Pseudomonas aeruginosa, read-out: MIC (µg/mL) P. aeruginosa
[16] = tested on: S. aureus; experiment: MIC, two-fold microbroth dilution method; details: Staphylococcus aureus
[17] = tested on: HL-60(TB); experiment: NCI single dose (10 µM) SRB screen; assay type: cell-based, human; details: leukaemia, 48 h
[18] = tested on: BT-549; experiment: NCI single dose (10 µM) SRB screen; assay type: cell-based, human; details: breast cancer, 48 h
[19] = tested on: OVCAR-4; experiment: NCI single dose (10 µM) SRB screen; assay type: cell-based, human; details: ovarian cancer, 48 h
[20] = tested on: A549/ATCC; experiment: NCI single dose (10 µM) SRB screen; assay type: cell-based, human; details: non-small cell lung cancer, 48 h
[21] = tested on: RXF 393; experiment: NCI single dose (10 µM) SRB screen; assay type: cell-based, human; details: renal cancer, 48 h
[22] = tested on: SF-539; experiment: NCI single dose (10 µM) SRB screen; assay type: cell-based, human; details: CNS cancer, 48 h
[23] = read-out: MIC (µg/mL) C. albicans
[24] = 24 h, read-out: MIC, B. subtilis
[25] = read-out: MIC (µg/mL) B. subtilis
[26] = read-out: MIC (µg/mL) S. aureus

Row | Structure (SMILES) | GI% OVCAR-8 [1] | GI% NCI-H322M [2] | MIC [3, 23] | GI% A498 [4] | GI% UACC-257 [5] | GI% UACC-62 [6] | melting point | zone of inhibition at 1000 µg/mL [7] | % activity index, A. flavus [7] | MIC [8] | GI% UO-31 [9] | GI% ACHN [10] | GI% CAKI-1 [11] | GI% MCF7 [12] | MIC [13, 24] | MIC [13, 25] | MIC [14] | MIC [15] | MIC ([16]; 24 h, read-out: MIC, S. aureus) | MIC [16, 26] | also measured
1 | COC(=O)C1=C(C)NC(C)=C(C(=O)OC(C)C)C1c1cccc(C#N)c1 (racemic) [Compound 2a, (±)-3-Isopropyl 5-methyl 4-(3-cyanophenyl)-2,6-dimethyl-1,4-dihydropyridine-3,5-dicarboxylate] | – (Only GI% ≥ 10 are shown) | – (Only GI% ≥ 10 are shown) | 4 µg/mL (≈ 11.3 µM) | 11% | – (Only GI% ≥ 10 are shown) | – (Only GI% ≥ 10 are shown) | 128 to 130 °C | 22 mm | 88% | 8 µg/mL (≈ 22.6 µM) | – (Only GI% ≥ 10 are shown) | – (Only GI% ≥ 10 are shown) | 11% | – (Only GI% ≥ 10 are shown) | 2 µg/mL (≈ 5.64 µM) | 2 µg/mL (≈ 5.64 µM) | 2 µg/mL (≈ 5.64 µM) | 4 µg/mL (≈ 11.3 µM) | 1 µg/mL (≈ 2.82 µM) | 1 µg/mL (≈ 2.82 µM) | GI% HL-60(TB) [17]: 23%; GI% BT-549 [18]: – (Only GI% ≥ 10 are shown); GI% OVCAR-4 [19]: – (Only GI% ≥ 10 are shown); GI% A549/ATCC [20]: – (Only GI% ≥ 10 are shown); GI% RXF 393 [21]: – (Only GI% ≥ 10 are shown); GI% SF-539 [22]: – (Only GI% ≥ 10 are shown)
2 | CCOC(=O)C1=C(C)NC(C)=C(C(=O)OC)C1c1cccc(C#N)c1 (racemic) [Compound 2g, (±)-3-Ethyl 5-methyl 4-(3-cyanophenyl)-2,6-dimethyl-1,4-dihydropyridine-3,5-dicarboxylate] | – (Only GI% ≥ 10 are shown) | – (Only GI% ≥ 10 are shown) | 1 µg/mL (≈ 2.94 µM) | – (Only GI% ≥ 10 are shown) | – (Only GI% ≥ 10 are shown) | – (Only GI% ≥ 10 are shown) | 151 to 153 °C | 24 mm | 96% | 2 µg/mL (≈ 5.88 µM) | – (Only GI% ≥ 10 are shown) | – (Only GI% ≥ 10 are shown) | – (Only GI% ≥ 10 are shown) | 11% | 1 µg/mL (≈ 2.94 µM) | 1 µg/mL (≈ 2.94 µM) | 1 µg/mL (≈ 2.94 µM) | 2 µg/mL (≈ 5.88 µM) | 0.5 µg/mL (≈ 1.47 µM) | 0.5 µg/mL (≈ 1.47 µM) | MIC ([3]; 24 h, read-out: MIC, C. albicans): 1 µg/mL (≈ 2.94 µM); GI% HL-60(TB) [17]: – (Only GI% ≥ 10 are shown); GI% BT-549 [18]: – (Only GI% ≥ 10 are shown); GI% OVCAR-4 [19]: – (Only GI% ≥ 10 are shown); GI% A549/ATCC [20]: – (Only GI% ≥ 10 are shown); GI% RXF 393 [21]: – (Only GI% ≥ 10 are shown); GI% SF-539 [22]: – (Only GI% ≥ 10 are shown)
